Experimental data from PubChem BioAssay AID1845210 (Molecular Pharmacology Branch, DTP, NCI, 2023).

System: NCI-H226 complex tumor spheroids, viability
Assay: Anticancer human tumor NCI-H226 cell line growth inhibition;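 also: spheroids exposed to compound for 7 days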;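 as to viability, T/C: 100% = DMSO vehicle control viability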
Settings: for IC50: curve of first compound; for viability, T/C: stronger effect = lower value
Description: Multicellular complex tumor spheroid response to DNA repair inhibitors in combination with DNA-damaging drugs
This study explores the anticancer activities of DNA-damaging drugs and inhibitors of DNA damage repair, both as single agents and in combinations. Complex tumor spheroids comprised of malignant cells, endothelial cells and mesenchymal stem cells served as an in vitro model for human solid tumors. This model system incorporates physiologically relevant features and patient-derived or established malignant cell lines with clinically relevant genetic alterations from many tumor types. Twenty-six patient-derived or established malignant cell lines were evaluated representing sarcoma, melanoma, small cell lung cancer (SCLC), non-small cell lung cancer (NSCLC), as well as bladder, ovarian and pancreatic cancers. The concentration ranges selected for each drug and investigational agent were based upon clinically achievable concentrations if the clinical Cmax of the agent was known.
Compounds. The drugs and compounds olaparib (NSC753686), talazoparib (NSC767125), berzosertib (NSC777718), elimusertib (NSC800525), nedisertib (NSC802822), VX-984 (NSC792969), AZD-1390 (NSC803789), temozolomide (NSC362856), topotecan (NSC609699), trabectedin (NSC813783), staurosporine (NSC755774), and gemcitabine (NSC613327) were obtained from the National Cancer Institute (NCI) Developmental Therapeutics Program Chemical Repository. The FDA-approved anticancer drug set is available from the Developmental Therapeutics Program at https://dtp.cancer.gov/organization/dscb/obtaining/available_plates.htm. […] The stock solutions were prepared in dimethyl sulfoxide (DMSO, Sigma-Aldrich, St. Louis, MO, cat. D2650) at 400-fold the tested concentration and stored at -70 degrees C. Prior to their use, the stock solutions were diluted in fresh medium and the final DMSO concentration in the assay was 0.25% (v/v). All drugs and investigational agents were tested over a range starting from a high concentration at or near the clinical Cmax and decreasing in half-log increments. If the clinical Cmax for an agent had not been determined, the highest concentration tested was 10 microM.
Cell Lines. The patient-derived cancer cell (PDC) lines: 156681-154-R-J1-PDC, 283228-195-R-J1-PDC, 287954-098-R-J1-PDC, 292921-168-R-J2-PDC, 349418-098-R-PDC, 425362-245-T-J1-PDC, 556581-035-R-J1-PDC, and BL0293-F563-PDC were received from the NCI Patient-Derived Models Repository (PDMR, https://pdmr.cancer.gov). The established cell lines HS-SY-2 (RRID:CVCL_8719), MPNST, and SYO-1 (RRID:CVCL_7146) were obtained from the Sloan Kettering Institute. The alveolar soft parts sarcoma cell line ASPS-1 (RRID:CVCL_S738) was established at the NCI and grown from internal seed stocks. The following established cell lines were purchased from the American Type Culture Collection (ATCC, Manassas, VA): G-401 (ATCC, cat. CRL-1441, RRID:CVCL_0270), SW982 (ATCC, cat. HTB-93, RRID:CVCL_1734), VA-ES-BJ (ATCC, cat. CRL-2138, RRID:CVCL_1785), NCI-H719 (ATCC, cat. CRL-5837, RRID:CVCL_1582), NCI-H196 (ATCC, cat. CRL-5823, RRID:CVCL_1509), NCI-H841 (ATCC, cat. CRL-5845, RRID:CVCL_1595), NCI-H1618 (ATCC, cat. CRL-5879, RRID:CVCL_1480), NCI-H1876 (ATCC, cat. CRL-5902, RRID:CVCL_1503), DMS 114 (ATCC, cat. CRL-2066; RRID:CVCL_1174), NCI-H211 (ATCC, cat. CRL-5824; RRID:CVCL_1529), and SW 1271 (ATCC, cat. CRL-2177, RRID:CVCL_1716). The small cell lung cancer cell line COR-L88 was purchased from Sigma-Aldrich (cat. 92031917-1VL, RRID:CVCL_1141). The non-small cell lung cancer cell lines NCI-H226 (RRID:CVCL_1544) and NCI-H322M (RRID:CVCL_1557) were established at the NCI and grown from internal seed stocks. Pooled donor human umbilical vein endothelial cells (HUVEC, Lonza, cat. CC-2519) and human mesenchymal stem cells (hMSC, Lonza, cat. PT-2501) were purchased from Lonza (Walkersville, MD).
Cell Culture. All cells were maintained in an incubator at 37 degrees C and 5% CO2 with 95% humidity. […]

[1] = second compound 0.003 µM, first compound 0.00949 µM
[2] = second compound 0.003 µM, first compound 0.03 µM
[3] = second compound 0.003 µM, first compound 0.0949 µM
[4] = second compound 0.003 µM, first compound 0.3 µM
[5] = second compound 0.003 µM, first compound 0.949 µM
[6] = second compound 0.003 µM, first compound 3 µM
[7] = second compound 0.00949 µM, first compound 0.00949 µM
[8] = second compound 0.00949 µM, first compound 0.03 µM
[9] = second compound 0.00949 µM, first compound 0.0949 µM
[10] = second compound 0.00949 µM, first compound 0.3 µM
[11] = second compound 0.00949 µM, first compound 0.949 µM
[12] = second compound 0.00949 µM, first compound 3 µM
[13] = second compound 0.03 µM, first compound 0.00949 µM
[14] = second compound 0.03 µM, first compound 0.03 µM
[15] = second compound 0.03 µM, first compound 0.0949 µM
[16] = second compound 0.03 µM, first compound 0.3 µM
[17] = second compound 0.03 µM, first compound 0.949 µM
[18] = second compound 0.03 µM, first compound 3 µM
[19] = second compound 0.0949 µM, first compound 0.00949 µM
[20] = second compound 0.0949 µM, first compound 0.03 µM
[21] = second compound 0.0949 µM, first compound 0.0949 µM
[22] = second compound 0.0949 µM, first compound 0.3 µM
[23] = second compound 0.0949 µM, first compound 0.949 µM
[24] = second compound 0.0949 µM, first compound 3 µM
[25] = second compound 0.3 µM, first compound 0.00949 µM
[26] = second compound 0.3 µM, first compound 0.03 µM
[27] = second compound 0.3 µM, first compound 0.0949 µM
[28] = second compound 0.3 µM, first compound 0.3 µM
[29] = second compound 0.3 µM, first compound 0.949 µM
[30] = second compound 0.3 µM, first compound 3 µM

SMILES | IC50 (second compound 0.003 µM) [nM] | IC50 (second compound 0.00949 µM) [nM] | IC50 (second compound 0.03 µM) [nM] | IC50 (second compound 0.0949 µM) [nM] | IC50 (second compound 0.3 µM) [nM] | viability, T/C [3] [%] | viability, T/C [4] [%] | viability, T/C [5] [%] | viability, T/C [6] [%] | viability, T/C [9] [%] | viability, T/C [10] [%] | viability, T/C [11] [%] | viability, T/C [12] [%] | viability, T/C [15] [%] | viability, T/C [16] [%] | viability, T/C [17] [%] | viability, T/C [18] [%] | viability, T/C [21] [%] | viability, T/C [22] [%] | viability, T/C [23] [%] | also measured
CNCc1ccc(-c2cc(-c3nc(-c4ccc(S(=O)(=O)C(C)C)cc4)cnc3N)on2)cc1 + CC[C@@]1(O)C(=O)OCc2c1cc1n(c2=O)Cc2cc3c(CN(C)C)c(O)ccc3nc2-1 | 1710 | 1560 | 1700 | 1670 | 1310 | 125 | 130 | 89.8 | 12.1 | 108 | 107 | 87 | 1.35 | 115 | 123 | 97.4 | 3.86 | 104 | 110 | 96.7 | viability, T/C [1]: 111%; viability, T/C [2]: 116%; viability, T/C [7]: 99.1%; viability, T/C [8]: 112%; viability, T/C [13]: 90.5%; viability, T/C [14]: 109%; viability, T/C [19]: 90.7%; viability, T/C [20]: 105%; viability, T/C [24]: 1.91%; viability, T/C [25]: 70.1%; viability, T/C [26]: 76.7%; viability, T/C [27]: 92.8%; viability, T/C [28]: 101%; viability, T/C [29]: 69.5%; viability, T/C [30]: 0.93%
Cn1ncnc1[C@H]1c2n[nH]c(=O)c3cc(F)cc(c23)N[C@@H]1c1ccc(F)cc1 + CC[C@@]1(O)C(=O)OCc2c1cc1n(c2=O)Cc2cc3c(CN(C)C)c(O)ccc3nc2-1 | > 3000 | > 3000 | > 3000 | > 3000 | > 3000 | 88.7 | 82.4 | 93.7 | 98.7 | 88.3 | 95.2 | 82.6 | 91.6 | 92.2 | 79.9 | 91.1 | 91.9 | 66.1 | 72.2 | 69.2 | viability, T/C [1]: 102%; viability, T/C [2]: 87.8%; viability, T/C [7]: 84.4%; viability, T/C [8]: 106%; viability, T/C [13]: 89.4%; viability, T/C [14]: 80.1%; viability, T/C [19]: 70.8%; viability, T/C [20]: 73.5%; viability, T/C [24]: 77.8%; viability, T/C [25]: 60.5%; viability, T/C [26]: 59%; viability, T/C [27]: 58.9%; viability, T/C [28]: 56.5%; viability, T/C [29]: 59.2%; viability, T/C [30]: 66.9%
O=C(c1cc(Cc2n[nH]c(=O)c3ccccc23)ccc1F)N1CCN(C(=O)C2CC2)CC1 + CC[C@@]1(O)C(=O)OCc2c1cc1n(c2=O)Cc2cc3c(CN(C)C)c(O)ccc3nc2-1 | > 30000 | > 30000 | > 30000 | > 30000 | > 30000 | 103 | 95.8 | 100 | 106 | 94.7 | 91.2 | 95.9 | 91 | 88.9 | 90.4 | 90.1 | 91.2 | 78.4 | 74.4 | 80.2 | viability, T/C (second compound 0.003 µM, first compound 9.49 µM): 97.9%; viability, T/C (second compound 0.003 µM, first compound 30 µM): 100%; viability, T/C (second compound 0.00949 µM, first compound 9.49 µM): 85.9%; viability, T/C (second compound 0.00949 µM, first compound 30 µM): 81.1%; viability, T/C (second compound 0.03 µM, first compound 9.49 µM): 96.5%; viability, T/C (second compound 0.03 µM, first compound 30 µM): 89.9%; viability, T/C [24]: 79.8%; viability, T/C (second compound 0.0949 µM, first compound 9.49 µM): 74.9%; viability, T/C (second compound 0.0949 µM, first compound 30 µM): 78.8%; viability, T/C [27]: 68.9%; viability, T/C [28]: 68.7%; viability, T/C [29]: 72.7%; viability, T/C [30]: 66.8%; viability, T/C (second compound 0.3 µM, first compound 9.49 µM): 70.6%; viability, T/C (second compound 0.3 µM, first compound 30 µM): 60.7%
